Laboratory results reported in the supplement of paper PMC11061612.

Key:
[1] = tested on: KMS-12-BM (Plasma Cell Myeloma); assay: combination Emax (second highest fraction inhibited in the dose matrix, 72 h); higher = more inhibition; extreme values may be limits of the assay
Outline: (§1)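 Cell lines in DMEM/F12 or RPMI with 10% FBS were plated in 1536-well plates, held 24 hours at 37°C, 5% CO2, then given two-drug dose matrices for 72 hours (DMSO typically 0.2%). Viability was read by CellTiter-Glo 2.0 luminescence and scaled as inhibition from 0 (vehicle wells) to 1 (blank wells). Combination Emax is the second-highest inhibition in the matrix; Bliss excess is observed combination effect minus expected EA + EB − EA·EB, EA and EB being single-agent effects.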

[2] = tested on: VMRC-RCZ (Kidney Carcinoma); assay: as above
Outline: as §1

| Structure (SMILES) | combination Emax [1] | combination Emax [2] |
| --- | --- | --- |
| CN(CCO)CC[C@H](CSc1ccccc1)Nc1ccc(S(=O)(=O)NC(=O)c2ccc(N3CCC([C@@H](O)c4ccccc4-c4ccc(Cl)cc4)CC3)cc2)cc1S(=O)(=O)C(F)(F)F [AZD4320] + CN(C)CCCOc1ccc(-c2ccc3ncc4c(c3c2)n(C2CCOCC2)c(=O)n4C)cn1 [AZD0156] (first compound max 1 µM, 7x7, partner max 1 µM) | 1 | 0.13 |
| Cc1cc2ncnn2cc1Nc1ncc2c(n1)n(C1CCOCC1)c(=O)n2C [AZD7648] + C[C@@H]1COCCN1C2=NC(=NC(=C2)C3(CC3)[S@](=N)(=O)C)C4=C5C=CNC5=NC=C4 [AZD6738] (first compound max 10 µM, 7x7, partner max 10 µM) | 0.926 | 0.388 |
| COc1cccc(OCCCN)c1-c1cc(Nc2cnc(C#N)cn2)n[nH]1 [Prexasertib] + CN(C)CCCOc1ccc(-c2ccc3ncc4c(c3c2)n(C2CCOCC2)c(=O)n4C)cn1 [AZD0156] (first compound max 1 µM, 7x7, partner max 1 µM) | 1 | 0.342 |
| CN(C)CCCOc1ccc(-c2ccc3ncc4c(c3c2)n(C2CCOCC2)c(=O)n4C)cn1 [AZD0156] + CCN(CCO)CCCOc1ccc2c(Nc3cc(CC(=O)Nc4cccc(F)c4)[nH]n3)ncnc2c1 [AZD2811] (first compound max 1 µM, 7x7, partner max 1 µM) | 0.495 | 0.078 |
| COc1cccc(OCCCN)c1-c1cc(Nc2cnc(C#N)cn2)n[nH]1 [Prexasertib] + CCc1c2c(nc3ccc(O)cc13)-c1cc3c(c(=O)n1C2)COC(=O)[C@]3(O)CC [SN-38] (first compound max 1 µM, 7x7, partner max 0.3 µM) | 1 | 0.625 |
| Cc1c2c(nn1C)CSCc1cc(n(C)n1)CSc1cc(c3ccccc3c1)OCCCc1c(C(=O)O)n(C)c3c-2c(Cl)ccc13 [AZD5991] + CC1(C)CCC(CN2CCN(c3ccc(C(=O)NS(=O)(=O)c4ccc(NCC5CCOCC5)c([N+](=O)[O-])c4)c(Oc4cnc5[nH]ccc5c4)c3)CC2)=C(c2ccc(Cl)cc2)C1 [Venetoclax] (first compound max 1 µM, 7x7, partner max 1 µM) | 1 | 0.21 |
| CN(CCO)CC[C@H](CSc1ccccc1)Nc1ccc(S(=O)(=O)NC(=O)c2ccc(N3CCC([C@@H](O)c4ccccc4-c4ccc(Cl)cc4)CC3)cc2)cc1S(=O)(=O)C(F)(F)F [AZD4320] + Cc1cc2ncnn2cc1Nc1ncc2c(n1)n(C1CCOCC1)c(=O)n2C [AZD7648] (first compound max 1 µM, 7x7, partner max 10 µM) | 1 | 0.0798 |
| CCN(CCO)CCCOc1ccc2c(Nc3cc(CC(=O)Nc4cccc(F)c4)[nH]n3)ncnc2c1 [AZD2811] + C=CCn1c(=O)c2cnc(Nc3ccc(N4CCN(C)CC4)cc3)nc2n1-c1cccc(C(C)(C)O)n1 [AZD1775] (first compound max 1 µM, partner max 1 µM) | 0.944 | 0.217 |
| CN(CCO)CC[C@H](CSc1ccccc1)Nc1ccc(S(=O)(=O)NC(=O)c2ccc(N3CCC([C@@H](O)c4ccccc4-c4ccc(Cl)cc4)CC3)cc2)cc1S(=O)(=O)C(F)(F)F [AZD4320] + CCN(CCO)CCCOc1ccc2c(Nc3cc(CC(=O)Nc4cccc(F)c4)[nH]n3)ncnc2c1 [AZD2811] (first compound max 1 µM, 7x7, partner max 1 µM) | 1 | 0.149 |
| Cc1cc2ncnn2cc1Nc1ncc2c(n1)n(C1CCOCC1)c(=O)n2C [AZD7648] + CCN(CCO)CCCOc1ccc2c(Nc3cc(CC(=O)Nc4cccc(F)c4)[nH]n3)ncnc2c1 [AZD2811] (first compound max 10 µM, 7x7, partner max 1 µM) | 0.574 | 0.276 |
| CC1(C)CCC(CN2CCN(c3ccc(C(=O)NS(=O)(=O)c4ccc(NCC5CCOCC5)c([N+](=O)[O-])c4)c(Oc4cnc5[nH]ccc5c4)c3)CC2)=C(c2ccc(Cl)cc2)C1 [Venetoclax] + Cn1cnc2c(F)c(Nc3ccc(Br)cc3Cl)c(C(=O)NOCCO)cc21 [Selumetinib] (first compound max 1 µM, 7x7, partner max 3 µM) | 1 | 0.122 |
| COc1cccc(OCCCN)c1-c1cc(Nc2cnc(C#N)cn2)n[nH]1 [Prexasertib] + O=C(c1cc(Cc2n[nH]c(=O)c3ccccc23)ccc1F)N1CCN(C(=O)C2CC2)CC1 [Olaparib] (first compound max 1 µM, 7x7, partner max 10 µM) | 1 | 0.408 |
| COc1cccc(OCCCN)c1-c1cc(Nc2cnc(C#N)cn2)n[nH]1 [Prexasertib] + Cc1cc2ncnn2cc1Nc1ncc2c(n1)n(C1CCOCC1)c(=O)n2C [AZD7648] (first compound max 1 µM, 7x7, partner max 10 µM) | 1 | 0.362 |
| Cc1c2c(nn1C)CSCc1cc(n(C)n1)CSc1cc(c3ccccc3c1)OCCCc1c(C(=O)O)n(C)c3c-2c(Cl)ccc13 [AZD5991] + Cn1cnc2c(F)c(Nc3ccc(Br)cc3Cl)c(C(=O)NOCCO)cc21 [Selumetinib] (first compound max 1 µM, 7x7, partner max 3 µM) | 1 | 0.214 |
| CN(CCO)CC[C@H](CSc1ccccc1)Nc1ccc(S(=O)(=O)NC(=O)c2ccc(N3CCC([C@@H](O)c4ccccc4-c4ccc(Cl)cc4)CC3)cc2)cc1S(=O)(=O)C(F)(F)F [AZD4320] + C=CCn1c(=O)c2cnc(Nc3ccc(N4CCN(C)CC4)cc3)nc2n1-c1cccc(C(C)(C)O)n1 [AZD1775] (first compound max 1 µM, partner max 1 µM) | 1 | 0.39 |
| CCc1c2c(nc3ccc(O)cc13)-c1cc3c(c(=O)n1C2)COC(=O)[C@]3(O)CC [SN-38] + CN(C)CCCOc1ccc(-c2ccc3ncc4c(c3c2)n(C2CCOCC2)c(=O)n4C)cn1 [AZD0156] (first compound max 0.3 µM, 7x7, partner max 1 µM) | 0.96 | 0.261 |
| CC1(C)CCC(CN2CCN(c3ccc(C(=O)NS(=O)(=O)c4ccc(NCC5CCOCC5)c([N+](=O)[O-])c4)c(Oc4cnc5[nH]ccc5c4)c3)CC2)=C(c2ccc(Cl)cc2)C1 [Venetoclax] + C=CCn1c(=O)c2cnc(Nc3ccc(N4CCN(C)CC4)cc3)nc2n1-c1cccc(C(C)(C)O)n1 [AZD1775] (first compound max 1 µM, partner max 1 µM) | 1 | 0.467 |
| CC1(C)CCC(CN2CCN(c3ccc(C(=O)NS(=O)(=O)c4ccc(NCC5CCOCC5)c([N+](=O)[O-])c4)c(Oc4cnc5[nH]ccc5c4)c3)CC2)=C(c2ccc(Cl)cc2)C1 [Venetoclax] + C[C@@H]1COCCN1C2=NC(=NC(=C2)C3(CC3)[S@](=N)(=O)C)C4=C5C=CNC5=NC=C4 [AZD6738] (first compound max 1 µM, 7x7, partner max 10 µM) | 1 | 0.434 |
| C=CCn1c(=O)c2cnc(Nc3ccc(N4CCN(C)CC4)cc3)nc2n1-c1cccc(C(C)(C)O)n1 [AZD1775] + O=C(c1cc(Cc2n[nH]c(=O)c3ccccc23)ccc1F)N1CCN(C(=O)C2CC2)CC1 [Olaparib] (first compound max 1 µM, partner max 10 µM) | 0.905 | 0.339 |
| COc1cccc(OCCCN)c1-c1cc(Nc2cnc(C#N)cn2)n[nH]1 [Prexasertib] + C=CCn1c(=O)c2cnc(Nc3ccc(N4CCN(C)CC4)cc3)nc2n1-c1cccc(C(C)(C)O)n1 [AZD1775] (first compound max 1 µM, partner max 1 µM) | 1 | 0.388 |
| Cc1cc2ncnn2cc1Nc1ncc2c(n1)n(C1CCOCC1)c(=O)n2C [AZD7648] + C=CCn1c(=O)c2cnc(Nc3ccc(N4CCN(C)CC4)cc3)nc2n1-c1cccc(C(C)(C)O)n1 [AZD1775] (first compound max 10 µM, partner max 1 µM) | 0.937 | 0.393 |
| CN(C)CCCOc1ccc(-c2ccc3ncc4c(c3c2)n(C2CCOCC2)c(=O)n4C)cn1 [AZD0156] + C[C@@H]1COCCN1C2=NC(=NC(=C2)C3(CC3)[S@](=N)(=O)C)C4=C5C=CNC5=NC=C4 [AZD6738] (first compound max 1 µM, 7x7, partner max 10 µM) | 1 | 0.232 |
| CN(CCO)CC[C@H](CSc1ccccc1)Nc1ccc(S(=O)(=O)NC(=O)c2ccc(N3CCC([C@@H](O)c4ccccc4-c4ccc(Cl)cc4)CC3)cc2)cc1S(=O)(=O)C(F)(F)F [AZD4320] + C1CN(CCC1(C(=O)N[C@@H](CCO)C2=CC=C(C=C2)Cl)N)C3=NC=NC4=C3C=CN4 [Capivasertib] (first compound max 1 µM, 7x7, partner max 3 µM) | 1 | 0.37 |
| CN(C)CCCOc1ccc(-c2ccc3ncc4c(c3c2)n(C2CCOCC2)c(=O)n4C)cn1 [AZD0156] + C=CCn1c(=O)c2cnc(Nc3ccc(N4CCN(C)CC4)cc3)nc2n1-c1cccc(C(C)(C)O)n1 [AZD1775] (first compound max 1 µM, partner max 1 µM) | 0.948 | 0.206 |
| COc1cc2c(cc1OCCCCCOc1cc3c(cc1OC)C(=O)N1C=C(C)C[C@H]1C=N3)N=C[C@@H]1CC(C)=CN1C2=O [SG3199] + O=C(c1cc(Cc2n[nH]c(=O)c3ccccc23)ccc1F)N1CCN(C(=O)C2CC2)CC1 [Olaparib] (first compound max 0.001 µM, 7x7, partner max 10 µM) | 0.136 | 0.0887 |
| CC(=O)Nc1cccc(-n2c(=O)n(C3CC3)c(=O)c3c(Nc4ccc(I)cc4F)n(C)c(=O)c(C)c32)c1 [Trametinib] + Cc1nc(-c2cn3c(n2)-c2ccc(-c4cnn(C(C)(C)C(N)=O)c4)cc2OCC3)n(C(C)C)n1 [Taselisib] (first compound max 1 µM, 7x7, partner max 10 µM) | 0.636 | 0.308 |
